Test results from patent US20030027981A1, “Urokinase-type plasminogen activator receptor” (priority 1989, published 2003).
Like-named read-outs stand apart in the source and are kept apart here.

Legend:
HT-1080 cells = experiment: Formation of cell-bound plasmin on HT-1080 cells in serum culture (tranexamic acid eluate, thioesterase assay); assay type: cell-based, human; details: for Bound plasmin activity: 2 h, serum medium, all with Plg 40 μg/ml, aprotinin, anti-Plg-1, TA (100 μM) also with anti-PAI-1 10 μg/ml; for activity at 10 µM / activity at 100 µM: Homo sapiens, HT-1080; for activity at 10 µM: Plg 40 μg/ml + TA 10 μM; for activity at 100 µM: Plg 40 μg/ml + TA 100 μM
Method: Human fibrosarcoma cells (HT-1080, CCL 121) were obtained from the American Type Culture Collection, Rockville, Md. Confluent cell layers were grown in plastic Linbro wells (2 cm^2; Flow Laboratories) in Eagle's minimal essential medium (MEM) supplemented with 10% heat-inactivated (56° C. for 60 minutes) fetal calf serum (Gibco), 100 IU/ml penicillin and 50 μg/ml streptomycin. After reaching confluence, the cells were rinsed three times with MEM containing 0.2% bovine serum albumin (BSA), then changed to either serum-free medium (0.5 ml) or medium containing 10% heat-inactivated and plasminogen-depleted (i.e. absorbed with lysine-Sepharose; Pharmacia, Uppsala, Sweden) fetal calf serum as indicated in the Examples.
Human plasminogen (with glutamic acid N-terminal) was prepared by affinity chromatography on lysine-Sepharose (Deutsch, D. G., and E. T. Mertz, “Plasminogen: Purification from human plasma by affinity chromatography”, Science 170: 1095-1097, 1970) from freshly separated, unfrozen human plasma pretreated with 10 μM p-nitrophenyl guanidinobenzoate, 1 mM phenylmethylsulfonylfluoride and 0.1 μg/ml of an anti-catalytic murine monoclonal IgG antibody to human t-PA (ESP-2; see MacGregor, I. R. et al., “Characterization of epitopes on human tissue plasminogen activator recognised by a group of monoclonal antibodies”, Thromb. Haem. 53: 45-50, 1985); American Diagnostica, Greenwich, Conn.).
Res. 46: 755-766, 1987) titration equivalent of 3.6 IU u-PA/ml; an anti-catalytic murine monoclonal IgG antibody to human u-PA (clone 2 (10 μg/ml) in Nielsen, L. S. et al., “Enzyme-linked immunosorbent assay for human urokinase-type plasminogen activators and its proenzyme using a combination of monoclonal and polyclonal antibodies”, J. Immunoassay 7: 209-228, 1986); the anti-catalytic monoclonal antibody to human t-PA (10 μg/ml); a neutralising murine monoclonal IgG antibody to human PAI-1 (Nielsen, L. S. et al., “Monoclonal antibodies to human 54,000 molecular weight plasminogen activator inhibitor from fibrosarcoma cells—inhibitor neutralization and one-step affinity purification”, Thromb. Haem. 55: 206-212, 1986) (10 μg/ml) and diisopropyl fluorophosphate (DFP)-inactivated u-PA (0-10 μg/ml).
The plasmin activity of culture supernatant samples (50 μl) was assayed directly by incubation with the thioester substrate solution above (200 μl) for 30 minutes (serum-free supernatants) or 3 hours (serum-containing supernatants) at 37° C. An estimate of the amount of active plasmin present was made from calibration curves using human plasmin dilutions in serum-free medium covering the appropriate ranges of activity.
Plasmin bound to the cell layer was recovered and assayed as follows. After harvest of culture medium, the cells were rinsed three times with PBS (plasmin assays of further rinses were negative); then the bound plasmin was specifically eluted (Miles, L. A., and E. F. Plow, “Binding and activation of plasminogen on the platelet surface”, J. Biol. Chem. 260: 4303-4311, 1985) with a solution of 1 mM tranexamic acid in the same rinsing solution (150 μl/well). Plasmin activity was assayed in eluate samples (50 μl) as above with an incubation time of 3 hours at 37° C. Tranexamic acid at 1 mM had no effect on the thioesterase activity of plasmin in these assays.
The following additions were made to cell layers growing in MEM medium (0.5 ml) containing 10% heat-inactivated and plasminogen-depleted fetal calf serum: native human plasminogen (Plg, 40 μg/ml); anti-catalytic monoclonal antibody to human u-PA (10 μg/ml); anti-catalytic monoclonal antibody to human t-PA (10 μg/ml); PAI-2 (titration equivalent of 3.6 UI u-PA/ml); anti-catalytic monoclonal antibody to human plasmin (20 μg/ml); aprotinin (200 KIU/ml); tranexamic acid (TA, as shown). The cultures were incubated for the times shown before assay of cell-bound plasmin. The incubation with plasminogen was used as the 100% control for bound plasmin. […]

u-PAR = u-PAR (Homo sapiens, UniProt Q03405); experiment: Chemical cross-linking of 125I-ATF to purified u-PAR; assay type: binding; details: unlabelled reagent 100 nM, u-PAR approx. 1 nM, 125I-ATF approx. 1 nM
Method: B) Affinity column eluate was diluted to yield an approximate concentration of u-PAR of 1 nM during the assay. The samples were preincubated alone (lane 2) or in the presence of the following unlabelled reagents at a concentration of 100 nM: bovine serum albumin (lane 3), t-PA (lane 4), plasminogen (lane 5), murine epidermal growth factor (lane 6), ATF (lane 7), active 54 kD u-PA (lane 8), DFP-inactivated 54 kD u-PA (lane 9). After preincubation for 15 min at room temperature, ^125I-labelled ATF (approximately 1 nM) was added, followed by incubation for 1 hour at 4° C. After incubation, chemical cross-linking was performed with DSS, after which the samples were analyzed by SDS-PACE on a 6-16% gradient gel under non-reducing conditions and autoradiography. […] Electrophoretic mobilities of molecular weight standard proteins are inducated (kD).
Cross-linking of u-PAR in complex mixtures or purified fractions to ^125I-labelled ATF was performed as described for solubilized receptor (Nielsen et al., 1988), except that 2 mM disuccinimidylsuberate (DSS) was used for cross-linking. Cross-linking of purified u-PAR to DFP-treated u-PA for analysis by SDS-PAGE and silver-staining was performed in the same manner, except that non-labelled DFP-treated u-PA was used as the ligand.

uPAR-bound u-PA = uPAR-bound u-PA (Homo sapiens, UniProt P00749); assay type: cell-based
Method: U937 cells were grown in suspension in RPMI 1640 medium supplemented with 5% heat-inactivated fetal calf serum. PMA-stimulation of U937 cells was performed at a cell density of […] cells/ml with 150 nM PMA for 4 days. The adherent cell population was harvested with a rubber scraper and resuspended in PBS. […] The effect of PAI's on the activity of cell-bound u-PA was determined by the addition of varying concentrations of PAI-1 (0.18-18.4 nM) or PAI-2 (1.13-56.7 nM) to the incubations at the same time as the addition of plasminogen. Curves were then constructed of plasmin concentration against time. […] [pln]∞ was calculated from the relationship: [[…]]0) equation.2 where Δ[pln]0 is the initial rate of plasmin generation which was determined in control incubations in the absence of inhibitors. […] Association rate constants (second-order rate constants) were calculated from the slope of the line of double reciprocal plots of kapp against inhibitor concentration.

[1] = 3 h, serum medium with Plg 40 μg/ml (=100%), anti-u-PA 10 μg/ml, anti-t-PA 10 μg/ml, PAI-2 equiv. 3.6 IU u-PA/ml, aprotinin 200 KIU/ml, anti-Plg-1 20 μg/ml
[2] = 17 h, serum medium with Plg 40 μg/ml (=100%), additions as b555

Molecule	Competition for binding and cross-linking of 125I-labelled ATF to purified u-PAR (u-PAR)	Rate of inhibition of cell-bound u-PA relative to u-PA in solution (uPAR-bound u-PA; U937 cells)	Association rate constant (uPAR-bound u-PA; u-PA bound to uPAR on PMA-stimulated U937 cells) [M⁻¹ s⁻¹]	Association rate constant (uPAR-bound u-PA; u-PA bound to uPAR on U937 cells) [M⁻¹ s⁻¹]	Bound plasmin activity (HT-1080 cells) [ng]	activity at 10 µM (HT-1080 cells; 3 h) [%]	activity at 100 µM (HT-1080 cells; 3 h) [%]	activity at 10 µM (HT-1080 cells; 17 h) [%]	activity at 100 µM (HT-1080 cells; 17 h) [%]	Bound plasmin activity (%) (HT-1080 cells; [1])	Bound plasmin activity (%) (HT-1080 cells; [2])	Plasmin recovered from the cell layer (HT-1080 cells; 40 μg/ml human plasminogen in 0.5 ml serum medium, 2 cm^2 cell layer, 3 hours 37° C.) [ng]	Plasmin measurable in the medium (HT-1080 cells; 40 μg/ml human plasminogen in 0.5 ml serum medium, 3 hours 37° C.) [ng]	Bound plasmin activity (%) (HT-1080 cells; cells preincubated 1 h with inhibitor (anti-u-PA 10 μg/ml, PAI-2 equiv. 3.6 IU u-PA/ml), rinsed, then 3 h with Plg 40 μg/ml in serum medium)
NC[C@H]1CC[C@H](C(=O)O)CC1 [TA, tranexamic acid]					0	9.7	2.2	34	13					
aprotinin					3.3					13.2	7.8			

Further lines, with some results ahead:

Competition for binding and cross-linking of 125I-labelled ATF to purified u-PAR (u-PAR)	Rate of inhibition of cell-bound u-PA relative to u-PA in solution (uPAR-bound u-PA; U937 cells)	Association rate constant (uPAR-bound u-PA; u-PA bound to uPAR on PMA-stimulated U937 cells) [M⁻¹ s⁻¹]	Association rate constant (uPAR-bound u-PA; u-PA bound to uPAR on U937 cells) [M⁻¹ s⁻¹]	Molecule	Bound plasmin activity (HT-1080 cells) [ng]	activity at 10 µM (HT-1080 cells; 3 h) [%]	activity at 100 µM (HT-1080 cells; 3 h) [%]	activity at 10 µM (HT-1080 cells; 17 h) [%]	activity at 100 µM (HT-1080 cells; 17 h) [%]	Bound plasmin activity (%) (HT-1080 cells; [1])	Bound plasmin activity (%) (HT-1080 cells; [2])	Plasmin recovered from the cell layer (HT-1080 cells; 40 μg/ml human plasminogen in 0.5 ml serum medium, 2 cm^2 cell layer, 3 hours 37° C.) [ng]	Plasmin measurable in the medium (HT-1080 cells; 40 μg/ml human plasminogen in 0.5 ml serum medium, 3 hours 37° C.) [ng]	Bound plasmin activity (%) (HT-1080 cells; cells preincubated 1 h with inhibitor (anti-u-PA 10 μg/ml, PAI-2 equiv. 3.6 IU u-PA/ml), rinsed, then 3 h with Plg 40 μg/ml in serum medium)
no competition				Plg: native human plasminogen (glutamic acid N-terminal) purified from human plasma on lysine-Sepharose	12					100	100	28	10	
	approximately 60%	110000	330000	PAI-2: human type-2 plasminogen activator inhibitor purified from U937 cells (protein, UniProt P05120 1-415, looked up) Plasminogen activator …: MEDLCVANTLFALNLFKHLAKASPTQNLFLSPWSISSTMAMVYMGSRGSTEDQMAKVLQFNEVGANAVTPMTPENFTSCGFMQQIQKGSYPDAILQAQAADKIHSSFRSLSSAINASTGNYLLESVNKLFGEKSASFREEYIRLCQKYYSSEPQAVDFLECAEEARKKINSWVKTQTKGKIPNLLPEGSVDGDTRMVLVNAVYFKGKWKTPFEKKLNGLYPFRVNSAQRTPVQMMYLREKLNIGYIEDLKAQILELPYAGDVSMFLLLPDEIADVSTGLELLESEITYDKLNKWTSKDKMAEDEVEVYIPQFKLEEHYELRSILRSMGMEDAFNKGRANFSGMSERNDLFLSEVFHQAMVDVNEEGTEAAAGTGGVMTGRTGHGGPQFVADHPFLFLIMHKITNCILFFGRFSSP						48	19			54
